This assay relates to TEAD-dependent transcription. Nature of the assay: Inhibitor activity against TEAD-dependent transcription in a cell-based reporter assay (MSTO-211H+12XGTIIC luciferase). As to conditions: Homo sapiens; MSTO-211H+12XGTIIC cells, 24 hours incubation, luciferase luminescence normalized to cell viability fluorescence, geometric mean; read-out: MSTO-211H GMean IC50 (uM) Cell Assay Reporter Cell Variant: TEAD. The procedure, abridged:
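MSTO-211H mesothelioma cells stably carrying a 12xGTIIC TEAD-response-element luciferase reporter, treated with serial compound dilutions for 24 h at 37 °C. Luminescence normalized to CellTiter-Fluor viability signal; % inhibition versus DMSO and 20 μM K-975 controls, IC50 by nonlinear regression.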
(In general: Reporter assays use an easily measured gene product as a stand-in for the process of interest.)

In general, IC50 refers to the midpoint of a concentration-inhibition curve. For `O=C(/C=C/CN1CCC1)N1CCc2ccc(Oc3ccc(C(F)(F)F)cc3)cc2C1` [P-0117, (E)-4-(azetidin-1-yl)-1-(7-(4-(trifluoromethyl)phenoxy)-3,4-dihydroisoquinolin-2(1H)-yl)but-2-en-1-one], the IC50 was in the range of 0.5 to 20 µM.

Source of the values: patent US20240174659A1, “COMPOUNDS AND METHODS FOR YAP/TEAD MODULATION AND INDICATIONS THEREFOR” (Opna Bio SA, priority 2021, published 2024).
